What all share (assay): FRT cell Ussing chamber chloride transport assay
Common to all, as to assay type: cell-based

For one assay, the target named is T1, human CFTR mutant G970R (Homo sapiens, UniProt P13569, G970R).
T1 construct: expressed in transfected cells; host or cells: Fisher rat thyroid (FRT) FlpIn cells, pcDNA5/FRT
Conditions: FRT cells expressing G970R CFTR. An excerpt:
(§1) DNA cloning: Wild-type CFTR coding region was inserted into pcDNA5/FRT (Invitrogen, San Diego, Calif.) between EcoRV and ApaI.
(§2) Single CFTR gene mutations were introduced into the wild-type CFTR coding sequence by using QuickChange XL site-directed mutagenesis kit (Stratagene, Cambridge, UK). The CFTR coding region as well as its promoter sequence and 3′ untranslated sequence was fully sequenced to confirm the mutagenesis reaction.
(§3) The CFTR gene was stably expressed in Fisher rat thyroid (FRT) cells through FlpIn system. The FRT-FlpIn host cell line was generated by stably transfecting FRT cells with pFRT/lacZeo. The single integration of a FRT site was confirmed by Southern blot. After the mutant CFTR DNA was transfected into the FRT-FlpIn host cell line, the cells were incubate at 37° C. in Coon's modified Ham's F12 containing 10% FBS, 1% Pen/Strep, and 36 ml of Na− Bicarbonate for up to 8 passages under hygromycin selection (200 ug/ml).
(§4) All cells were grown on Costar® Snapwell™ cell culture inserts at maintained at 37° C. prior to recording. The cell culture inserts were mounted into an Ussing chamber (VCC MC8; Physiologic Instruments, Inc., San Diego, Calif.) to record ISC in the voltage-clamp mode (Vhold=0 mV). For FRT cells, the basolateral membrane was permeabilized with 360 μg/ml Nystatin and a basolateral to apical Cl− gradient was established. The basolateral bath solution contained (in mM); 135 NaCl, 1.2 CaCl2, 1.2 MgCl2, 2.4 K2HPO4, 0.6 KHPO4, 10 N-2-hydroxyethylpiperazine-N′-2-ethanesulfonic acid (HEPES), and 10 dextrose (titrated to pH 7.4 with NaOH). The apical NaCl was replaced by equimolar Na+ gluconate (titrated to pH 7.4 with NaOH). For HBE cells, the ISC was measured in the presence of a basolateral to apical Cl− gradient. The normal Cl− solution contained (in mM) 145 NaCl, 3.3 K2HPO4, 1.2 MgCl2, 1.2 CaCl2, 10 Glucose, 10 HEPES (pH adjusted to 7.35 with NaOH) and the low Cl− solution contained (in mM) 145 NaGluconate, 1.2 MgCl2, 1.2 CaCl2, 10 glucose, 10 HEPES (pH adjusted to 7.35 with NaOH). All recordings were digitally acquired using a Acquire and Analyze software (version 2; Physiologic Instruments, Inc. San Diego, Calif.).
(§5) The 10 μM forskolin stimulated response in FRT cell expressing different mutant CFTR forms or in HBE cells isolated from CF patients was normalized to the 10 μM forskolin-stimulated response in FRT cells expressing wild-type CFTR or in HBE isolated from non-CF individuals and expressed as % wild-type CFTR. In HBE, amiloride was added prior to forskolin application to block the epithelial Na+ channel.

The target in another assay is T2, human CFTR mutant L206W (Homo sapiens, UniProt P13569, L206W).
T2 construct: expressed in transfected cells; host or cells: Fisher rat thyroid (FRT) FlpIn cells, pcDNA5/FRT
Particulars: FRT cells expressing L206W CFTR.
Description: as §1, §2, §3, §4, §5

The target of a further assay is T3, human CFTR mutant P67L (Homo sapiens, UniProt P13569, P67L).
T3 construct: expressed in transfected cells; host or cells: Fisher rat thyroid (FRT) FlpIn cells, pcDNA5/FRT
Conditions: FRT cells expressing P67L CFTR.
Description: as §1, §2, §3, §4, §5

The next assay concerns the target T4, human CFTR mutant R1070W (Homo sapiens, UniProt P13569, R1070W).
T4 construct: expressed in transfected cells; host or cells: Fisher rat thyroid (FRT) FlpIn cells, pcDNA5/FRT
Conditions: FRT cells expressing R1070W CFTR.
Description: as §1, §2, §3, §4, §5

The target of a further assay is T5, human CFTR mutant R117C (Homo sapiens, UniProt P13569, R117C).
T5 construct: expressed in transfected cells; host or cells: Fisher rat thyroid (FRT) FlpIn cells, pcDNA5/FRT
Conditions: FRT cells expressing R117C CFTR.
Description: as §1, §2, §3, §4, §5

The target of a further assay is T6, human CFTR mutant R347H (Homo sapiens, UniProt P13569, R347H).
T6 construct: expressed in transfected cells; host or cells: Fisher rat thyroid (FRT) FlpIn cells, pcDNA5/FRT
Conditions: FRT cells expressing R347H CFTR.
Description: as §1, §2, §3, §4, §5

The next assay has as its target T7, human CFTR mutant R352Q (Homo sapiens, UniProt P13569, R352Q).
T7 construct: expressed in transfected cells; host or cells: Fisher rat thyroid (FRT) FlpIn cells, pcDNA5/FRT
Conditions: FRT cells expressing R352Q CFTR.
Description: as §1, §2, §3, §4, §5

Another assay concerns the target T8, human CFTR mutant S1235R (Homo sapiens, UniProt P13569, S1235R).
T8 construct: expressed in transfected cells; host or cells: Fisher rat thyroid (FRT) FlpIn cells, pcDNA5/FRT
Conditions: FRT cells expressing S1235R CFTR.
Description: as §1, §2, §3, §4, §5

Another assay addresses T9, human CFTR mutant S1251N (Homo sapiens, UniProt P13569, S1251N).
T9 construct: expressed in transfected cells; host or cells: Fisher rat thyroid (FRT) FlpIn cells, pcDNA5/FRT
Conditions: FRT cells expressing S1251N CFTR.
Description: as §1, §2, §3, §4, §5

Another assay concerns the target T10, human CFTR mutant S1255P (Homo sapiens, UniProt P13569, S1255P).
T10 construct: expressed in transfected cells; host or cells: Fisher rat thyroid (FRT) FlpIn cells, pcDNA5/FRT
Conditions: FRT cells expressing S1255P CFTR.
Description: as §1, §2, §3, §4, §5

A further assay concerns the target T11, human CFTR mutant S549N (Homo sapiens, UniProt P13569, S549N).
T11 construct: expressed in transfected cells; host or cells: Fisher rat thyroid (FRT) FlpIn cells, pcDNA5/FRT
Conditions: FRT cells expressing S549N CFTR.
Description: as §1, §2, §3, §4, §5

The target in the next assay is T12, human CFTR mutant S549R (Homo sapiens, UniProt P13569, S549R).
T12 construct: expressed in transfected cells; host or cells: Fisher rat thyroid (FRT) FlpIn cells, pcDNA5/FRT
Particulars: FRT cells expressing S549R CFTR.
Description: as §1, §2, §3, §4, §5

The next assay concerns the target T13, human CFTR mutant S945L (Homo sapiens, UniProt P13569, S945L).
T13 construct: expressed in transfected cells; host or cells: Fisher rat thyroid (FRT) FlpIn cells, pcDNA5/FRT
Conditions: FRT cells expressing S945L CFTR.
Description: as §1, §2, §3, §4, §5

T9 sequence (P13569 whole entry S1251N): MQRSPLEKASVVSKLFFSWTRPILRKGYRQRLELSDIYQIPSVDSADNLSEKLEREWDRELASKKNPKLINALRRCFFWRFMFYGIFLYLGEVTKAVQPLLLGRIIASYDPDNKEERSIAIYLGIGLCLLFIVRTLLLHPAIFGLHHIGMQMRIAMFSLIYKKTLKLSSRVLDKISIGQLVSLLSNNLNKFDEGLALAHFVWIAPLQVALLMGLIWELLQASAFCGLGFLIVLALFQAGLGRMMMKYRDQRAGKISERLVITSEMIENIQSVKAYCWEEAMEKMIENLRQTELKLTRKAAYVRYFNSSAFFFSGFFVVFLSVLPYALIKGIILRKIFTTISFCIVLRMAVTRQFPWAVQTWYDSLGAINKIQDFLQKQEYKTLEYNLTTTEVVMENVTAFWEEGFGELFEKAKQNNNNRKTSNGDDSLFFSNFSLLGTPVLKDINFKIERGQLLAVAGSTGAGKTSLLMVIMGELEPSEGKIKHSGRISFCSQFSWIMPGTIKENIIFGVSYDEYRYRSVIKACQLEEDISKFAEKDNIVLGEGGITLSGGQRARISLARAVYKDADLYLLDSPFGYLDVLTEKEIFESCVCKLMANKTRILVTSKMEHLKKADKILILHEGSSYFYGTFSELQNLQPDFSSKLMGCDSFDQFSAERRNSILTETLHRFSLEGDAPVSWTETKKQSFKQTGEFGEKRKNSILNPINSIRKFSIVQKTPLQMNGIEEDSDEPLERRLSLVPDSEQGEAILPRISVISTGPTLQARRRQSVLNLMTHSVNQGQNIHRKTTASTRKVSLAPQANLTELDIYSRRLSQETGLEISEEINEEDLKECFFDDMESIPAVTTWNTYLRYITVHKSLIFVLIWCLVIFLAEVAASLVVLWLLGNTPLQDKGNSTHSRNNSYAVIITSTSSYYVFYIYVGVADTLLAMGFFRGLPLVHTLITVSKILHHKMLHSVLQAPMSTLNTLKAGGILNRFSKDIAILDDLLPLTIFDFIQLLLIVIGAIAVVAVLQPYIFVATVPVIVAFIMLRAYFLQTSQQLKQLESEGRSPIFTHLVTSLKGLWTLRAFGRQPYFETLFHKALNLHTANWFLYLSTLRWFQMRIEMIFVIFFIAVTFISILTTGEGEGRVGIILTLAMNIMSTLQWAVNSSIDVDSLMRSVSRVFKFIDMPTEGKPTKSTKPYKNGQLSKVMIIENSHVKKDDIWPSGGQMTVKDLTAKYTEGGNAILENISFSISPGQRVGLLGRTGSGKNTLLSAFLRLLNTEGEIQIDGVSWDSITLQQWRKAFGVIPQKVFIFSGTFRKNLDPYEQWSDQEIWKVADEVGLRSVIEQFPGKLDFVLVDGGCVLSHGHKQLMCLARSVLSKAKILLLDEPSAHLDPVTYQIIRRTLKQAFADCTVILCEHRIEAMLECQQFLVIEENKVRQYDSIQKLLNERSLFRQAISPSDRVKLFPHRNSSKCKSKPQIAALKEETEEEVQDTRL
T2 sequence (P13569 whole entry L206W): as the sequence (P13569 whole entry S1251N) above, with L206W, N1251S counted along it
T10 sequence (P13569 whole entry S1255P): as the sequence (P13569 whole entry S1251N) above, with N1251S, S1255P counted along it
T7 sequence (P13569 whole entry R352Q): as the sequence (P13569 whole entry S1251N) above, with R352Q, N1251S counted along it
T8 sequence (P13569 whole entry S1235R): as the sequence (P13569 whole entry S1251N) above, with S1235R, N1251S counted along it
T3 sequence (P13569 whole entry P67L): as the sequence (P13569 whole entry S1251N) above, with P67L, N1251S counted along it
T6 sequence (P13569 whole entry R347H): as the sequence (P13569 whole entry S1251N) above, with R347H, N1251S counted along it
T12 sequence (P13569 whole entry S549R): as the sequence (P13569 whole entry S1251N) above, with S549R, N1251S counted along it
T11 sequence (P13569 whole entry S549N): as the sequence (P13569 whole entry S1251N) above, with S549N, N1251S counted along it
T5 sequence (P13569 whole entry R117C): as the sequence (P13569 whole entry S1251N) above, with R117C, N1251S counted along it
T13 sequence (P13569 whole entry S945L): as the sequence (P13569 whole entry S1251N) above, with S945L, N1251S counted along it
T1 sequence (P13569 whole entry G970R): as the sequence (P13569 whole entry S1251N) above, with G970R, N1251S counted along it
T4 sequence (P13569 whole entry R1070W): as the sequence (P13569 whole entry S1251N) above, with R1070W, N1251S counted along it

For the molecule `CC(C)(C)c1cc(C(C)(C)C)c(NC(=O)c2c[nH]c3ccccc3c2=O)cc1O` [Compound 1, N-[2,4-bis(1,1-dimethylethyl)-5-hydroxyphenyl]-1,4-dihydro-4-oxoquinoline-3-carboxamide], the “increase in chloride transport, relative to baseline chloride transport” value at human CFTR mutant G970R was “greater than 10 fold”; at human CFTR mutant L206W it was “greater than or equal to 10%”; on human CFTR mutant P67L, “greater than or equal to 10%”; on human CFTR mutant R1070W, “greater than or equal to 10%”; on human CFTR mutant R117C, “greater than or equal to 10%”; on human CFTR mutant R347H, “greater than or equal to 10%”. For the same molecule, the “increase in chloride transport, relative to baseline chloride transport” value was “greater than or equal to 10%” at human CFTR mutant R352Q; “greater than or equal to 10%” at human CFTR mutant S1235R; “greater than 10 fold” on human CFTR mutant S1251N; “greater than 10 fold” at human CFTR mutant S1255P; “greater than 10 fold” on human CFTR mutant S549N; “greater than 10 fold” at human CFTR mutant S549R. The “increase in chloride transport, relative to baseline chloride transport” value on human CFTR mutant S945L was “greater than or equal to 10%”.
